From US11203613B2, “Peptidomimetic proteasome inhibitors” (CORNELL UNIVERSITY, priority 2017, dated 2021)
pIC50: −log10 of the molar value. Where “and” joins values, the source holds several entries; their conditions need not be identical. Equal values may be shown once. Read-outs that look alike come from different tables or passages of the source.

Tests used:
Mtb20SOG = Mtb20SOG (Mycobacterium tuberculosis, UniProt P9WHT9); experiment: biochemical
[1] = molecular target: Human Constitutive (Hu C-20S) β5 Active Subunit (Homo sapiens, UniProt P28074); experiment: IC50 determination, human constitutive 20S proteasome β5c (suc-LLVY-AMC hydrolysis); assay type: biochemical; conditions: Table 2; several values in a cell are repeat determinations; read-out: Hu c-20S IC50
[2] = Table 2, several values in a cell are repeat determinations

Mtb20SOG, sequence (P9WHT9 58-291): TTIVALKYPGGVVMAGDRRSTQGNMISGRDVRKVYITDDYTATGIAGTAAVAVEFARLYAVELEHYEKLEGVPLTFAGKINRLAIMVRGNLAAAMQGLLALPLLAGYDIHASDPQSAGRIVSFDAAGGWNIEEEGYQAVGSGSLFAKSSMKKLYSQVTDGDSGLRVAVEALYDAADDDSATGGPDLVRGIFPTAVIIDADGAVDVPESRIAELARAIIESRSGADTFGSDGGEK

Row | SMILES | pIC50 (Mtb20SOG; [2]) | pIC50 [1] | pIC50 (Mtb20SOG)
1 | C[C@H](NC(=O)[C@H](CC(=O)N1CCC[C@@H]1c1ccccc1)NC(=O)CCC(C)(C)C)c1nc2ccccc2[nH]1 [CF-503156] | 7.06 | 4.78 | –
2 | CC(C)CCS(=O)(=O)N[C@@H](CC(=O)N1CCCC[C@@H]1C)C(=O)N[C@@H](C)c1ncc(-c2ccc(F)cc2F)[nH]1 [CF-503157] | 5.97 and 6.16 | 5.12 and 5.02 | –
3 | C[C@H](NC(=O)[C@H](CC(=O)N1CCCC[C@@H]1C)NC(=O)CCC(C)(C)C)c1ncc(-c2ccc(F)cc2F)[nH]1 [CF-503158] | 7.57 and 7.66 | 5.28 and 5.07 | –
4 | CC(C)CCC(=O)N[C@@H](CC(=O)N1CCCC1)C(=O)N[C@@H](C)c1ncc(-c2ccc(F)cc2F)[nH]1 [CF-503159] | 5.46 | 4.98 | –
5 | C[C@H](NC(=O)[C@H](CC(=O)N1CCCC1)NC(=O)CCC(C)(C)C)c1ncc(-c2ccc(F)cc2F)[nH]1 [CF-503160] | 6.10 | 4.99 | –
6 | Cc1cc(C(=O)N[C@@H](CC(=O)N2CCCC2)C(=O)N[C@@H](C)c2nc(-c3ccc(F)cc3F)c[nH]2)no1 [CF-503161] | – | 4.78 | 5.48
7 | C[C@H](NC(=O)[C@H](CC(=O)N1CCC[C@@H]1C)NC(=O)CCC(C)(C)C)c1ncc(-c2ccc(F)cc2F)[nH]1 [CF-503162] | 6.76 and 6.89 | 5.20 and 5.24 | –
8 | C[C@H](NC(=O)[C@H](CC(=O)N1CCC[C@@H]1C)NC(=O)CCC(C)(C)C)c1nc2ccccc2[nH]1 [CF-503163] | – | 4.78 | 5.46
9 | CC(C)CCNc1nc(C(=O)N[C@@H](C)C(=O)NCc2ccc(F)cc2F)cc(N2CCCC2)n1 [CF-503175] | 5.34 and 5.25 | 5.34 and 5.26 | –
10 | CC(C)CCS(=O)(=O)N[C@@H](CC(=O)N1CCC[C@@H]1c1ccccc1)C(=O)N[C@@H](C)c1nc2ccccc2[nH]1 [CF-503183] | 6.65 and 6.62 and 6.91 | 4.99 and 5.01 and 5.00 | –
11 | CC(C)CCS(=O)(=O)NC(CC(=O)N1CCCC1c1ccccc1)C(=O)NC(C)c1nc2ccccc2[nH]1 (stereo not drawn) [CF-503184] | – | 4.97 | 5.59
12 | C[C@H](NC(=O)N(CC(=O)N1CCCC[C@@H]1C)NC(=O)CCC(C)(C)C)c1ncc(-c2ccc(F)cc2F)[nH]1 [CF-503189] | 5.13 and 5.09 | 5.12 and 4.99 | –
13 | C[C@@H](NC(=O)[C@H](CC(=O)N1CCC[C@@H]1C)NC(=O)CCC(C)(C)C)c1nc2ccccc2[nH]1 [CF-503190] | – | 4.76 | 5.58
14 | C[C@H]1CCCCN1C(=O)C[C@H](NC(=O)CCC(C)(C)C)C(=O)NCc1nc2ccccc2[nH]1 [CF-503191] | – | 4.99 | 6.34
15 | CC(C)CCC(=O)N[C@@H](CC(=O)N1CCCC[C@@H]1C)C(=O)N[C@H](C)c1nc2ccccc2[nH]1 [CF-503192] | 5.31 | 4.81 | –
16 | CC(C)CCC(=O)N[C@@H](CC(=O)N1CCCC[C@@H]1C)C(=O)NCc1nc2ccccc2[nH]1 [CF-503193] | 6.19 | 4.75 | –
17 | CCN(CC)C(=O)C[C@H](NC(=O)CCC(C)C)C(=O)N[C@@H](C)c1nc(-c2ccc(F)cc2F)c[nH]1 [CF-503197] | – | 5.14 | 5.95
18 | CC(C)CCC(=O)N[C@@H](CC(=O)N1CCCC[C@@H]1C)C(=O)N[C@@H](C)c1ncc(-c2ccc(F)cc2F)[nH]1 [CF-503198] | 5.80 | 5.14 | –
19 | CC(C)CCC(=O)N[C@@H](CC(=O)N1CCCC[C@H]1C)C(=O)N[C@@H](C)c1nc(-c2ccc(F)cc2F)c[nH]1 [CF-503199] | – | 4.98 | 6.00
20 | CC(C)CCC(=O)N[C@@H](CC(=O)N(C)C(C)C)C(=O)N[C@@H](C)c1ncc(-c2ccc(F)cc2F)[nH]1 [CF-503200] | 6.04 | 4.83 | –
21 | C[C@H](NC(=O)N(CC(=O)N1CCCC[C@@H]1C)NC(=O)OC(C)(C)C)C(=O)NCc1ccc(F)cc1F [CF-503201] | 5.08 and < 5.10 | 5.07 and < 5.10 | –
22 | C[C@H](NC(=O)N(CC(=O)N1CCCC[C@@H]1C)NC(=O)CCC(C)(C)C)C(=O)NCc1ccc(F)cc1F [CF-503202] | 5.08 and 5.06 | 5.07 and 5.04 | –
23 | C[C@H](NC(=O)[C@H](CC(=O)N1CCCC[C@@H]1C)NC(=O)CCC1CC1)c1ncc(-c2ccc(F)cc2F)[nH]1 [CF-503204] | 7.01 | 4.93 | –
24 | C[C@H](NC(=O)[C@H](CC(=O)N1CCCC[C@@H]1C)NS(=O)(=O)CCC1CC1)c1ncc(-c2ccc(F)cc2F)[nH]1 [CF-503206] | 6.30 | 5.21 | –

Row | SMILES | pIC50 (Mtb20SOG; [2]) | pIC50 [1] | pIC50 (Mtb20SOG)
25 | CC(C)CCC(=O)N[C@@H](CC(=O)N1CCOC[C@@H]1C)C(=O)N[C@@H](C)c1nc(-c2ccc(F)cc2F)c[nH]1 [CF-503210] | – | 4.82 | 6.39
26 | CC(C)CCC(=O)N[C@@H](CC(=O)N1CCCC[C@@H]1C(F)(F)F)C(=O)N[C@@H](C)c1nc(-c2ccc(F)cc2F)c[nH]1 [CF-503212] | – | 5.31 | 6.46
27 | CC[C@H]1CCCCN1C(=O)C[C@H](NC(=O)CCC(C)C)C(=O)N[C@@H](C)c1ncc(-c2ccc(F)cc2F)[nH]1 [CF-503213] | 7.48 and 7.54 | 5.35 | –
28 | CC(C)CCC(=O)N[C@@H](CC(=O)N1CCCCCC1)C(=O)N[C@@H](C)c1nc(-c2ccc(F)cc2F)c[nH]1 [CF-503214] | – | 4.99 | 6.18
29 | CC[C@H]1CCCCN1C(=O)C[C@H](NC(=O)CCC(C)C)C(=O)N[C@@H](C)c1nc2ccccc2[nH]1 [CF-503216] | – | 4.83 and 4.84 | 6.53 and 6.48
30 | CC(C)CCC(=O)N[C@@H](CC(=O)N1CCCCC1C(C)C)C(=O)N[C@@H](C)c1ncc(-c2ccc(F)cc2F)[nH]1 (stereo partly drawn) [CF-503218] | 6.87 and 6.77 | 5.50 | –
31 | CC[C@H]1CCCCN1C(=O)C[C@H](NC(=O)CCC(C)C)C(=O)N[C@@H](C)c1nc2cc(F)cc(F)c2[nH]1 [CF-503219] | – | 5.39 and 5.35 | 6.10 and 6.08
32 | CC[C@H]1CCCCN1C(=O)C[C@H](NC(=O)CCC(C)(C)C)C(=O)N[C@@H](C)c1nc2c(F)cccc2[nH]1 [CF-503222] | 7.82 and 7.54 and 7.39 | 4.95 and 4.91 and 4.93 | –
33 | CC[C@H]1CCCCN1C(=O)C[C@H](NC(=O)CCC(C)C)C(=O)N[C@@H](C)c1nc2c(F)cccc2[nH]1 [CF-503223] | – | 4.97 and 4.99 | 7.55 and 7.48
34 | CC(C)CCC(=O)N[C@@H](CC(=O)N1CCCC[C@@H]1C)C(=O)N[C@@H](C)c1nc2c(F)cccc2[nH]1 [CF-503225] | 7.01 and 6.93 | 4.79 and 4.77 | –
35 | C[C@H](NC(=O)[C@H](CC(=O)N1CCCC[C@@H]1C)NC(=O)CCC(C)(C)C)c1nc2c(F)cccc2[nH]1 [CF-503227] | 7.10 and 7.09 | 5.32 and 5.19 | –
36 | CC[C@H]1CCCCN1C(=O)C[C@H](NC(=O)CCC(C)C)C(=O)N[C@@H](C)c1nc2cc(F)c(F)cc2[nH]1 [CF-503229] | – | 5.30 | 5.22
37 | CC[C@H]1CCCCN1C(=O)C[C@H](NS(=O)(=O)CCC(C)C)C(=O)N[C@@H](C)c1nc2c(F)cccc2[nH]1 [CF-503230] | 6.40 and 6.28 | 4.75 and 5.07 | –
38 | C[C@H](NC(=O)[C@@H](N)CC(=O)N1CCC[C@@H]1c1ccccc1)c1ncc(-c2ccccc2F)[nH]1 [CF-503240] | 5.07 | 4.03 | –
39 | C[C@H](NC(=O)[C@H](CC(=O)N1CCC[C@@H]1c1ccccc1)Nc1nc2ccccc2o1)c1ncc(-c2ccccc2F)[nH]1 [CF-503242] | 6.12 and 6.17 | 4.77 and 4.69 | –
40 | Cc1cc(C(=O)N[C@@H](CC(=O)N2CCCC[C@@H]2C)C(=O)N[C@@H](C)c2nc3c(F)cccc3[nH]2)no1 [CF-503274] | – | 5.15 | 7.16
41 | CC[C@H]1CCCCN1C(=O)C[C@H](NC(=O)CCc1ccccc1)C(=O)N[C@@H](C)c1nc2c(F)cccc2[nH]1 [CF-503291] | – | 5.58 and 5.47 | 8.15 and 8.22
42 | CC[C@H]1CCCCN1C(=O)C[C@H](NC(=O)NCc1ccccc1)C(=O)N[C@@H](C)c1nc2c(F)cccc2[nH]1 [CF-503304] | – | 5.03 | 6.44 and 6.49
43 | CC[C@H]1CCCCN1C(=O)C[C@H](NC(=O)CC1CC1)C(=O)N[C@@H](C)c1nc2c(F)cccc2[nH]1 [CF-503318] | – | 4.77 | 6.95
44 | CC[C@H]1CCCCN1C(=O)C[C@H](NC(=O)CC(F)(F)F)C(=O)N[C@@H](C)c1nc2c(F)cccc2[nH]1 [CF-503319] | – | 5.38 | 6.49
45 | CC[C@H]1CCCCN1C(=O)C[C@H](Nc1nc2ccccc2o1)C(=O)N[C@@H](C)c1nc2c(F)cccc2[nH]1 [CF-503321] | 6.57 and 6.43 | 5.35 and 5.28 | –
46 | CC[C@H]1CCCCN1C(=O)C[C@H](NC(=O)CCN(C)C)C(=O)N[C@@H](C)c1nc2c(F)cccc2[nH]1 [CF-503356] | – | 5.19 | 5.19
47 | CC[C@H]1CCCCN1C(=O)C[C@H](Nc1nc2cc(C)ccc2o1)C(=O)N[C@@H](C)c1nc2c(F)cccc2[nH]1 [CF-503357] | – | 5.72 | 6.59
48 | CC[C@H]1CCCCN1C(=O)C[C@H](Nc1nc2ccc(C)cc2o1)C(=O)N[C@@H](C)c1nc2c(F)cccc2[nH]1 [CF-503360] | 6.90 and 6.72 and 6.45 and 6.44 | 5.95 and 5.84 and 5.85 | –
